# Results as given in patent publication US20110086759A1, “CHEMICAL COMPOUNDS” (SYNGENTA CROP PROTECTION, INC., priority 2007, published 2011).
# Key:
# Type in all cases: in vivo
# [1] = system: Amaranthus retoflexus (AMARE); experiment: Post-emergence biological efficacy, glasshouse pot test; conditions: Amaranthus retroflexus, 312 h; Rate 1,000 g/ha; post-emergence spray; evaluated after 13 days (100=total damage to plant; 0=no damage to plant); read-out: Percentage damage caused to weed species, post-emergence, AMARE
# Summary of the method: (§1)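 Scored 13 days after spraying on a 0 (no damage) to 100 (total damage) scale. Treatment was a post-emergence spray at 1000 or 250 g/ha, from acetone/water 50:50 plus 0.5% Tween 20, onto 8-day-old plants in soil pots. Growth at 24/16° C, 14 h photoperiod, 65% humidity, watered twice daily.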
# [2] = system: Solanum nigrum (SOLNI); experiment: as above; conditions: 312 h, Rate 1,000 g/ha, post-emergence spray, evaluated after 13 days (100=total damage to plant; 0=no damage to plant), read-out: Percentage damage caused to weed species, post-emergence, SOLNI
# Summary of the method: as §1
# [3] = system: Alopecurus myosuroides (ALOMY); experiment: as above; conditions: 312 h, Rate 1,000 g/ha, post-emergence spray, evaluated after 13 days (100=total damage to plant; 0=no damage to plant), read-out: Percentage damage caused to weed species, post-emergence, ALOMY
# Summary of the method: as §1
# [4] = system: Setaria faberi (SETFA); experiment: as above; conditions: 312 h, Rate 1,000 g/ha, post-emergence spray, evaluated after 13 days (100=total damage to plant; 0=no damage to plant), read-out: Percentage damage caused to weed species, post-emergence, SETFA
# Summary of the method: as §1
# [5] = system: Ipomea hederaceae (IPOHE); experiment: as above; conditions: Ipomoea hederacea, 312 h; Rate 1,000 g/ha; post-emergence spray; evaluated after 13 days (100=total damage to plant; 0=no damage to plant); read-out: Percentage damage caused to weed species, post-emergence, IPOHE
# Summary of the method: as §1
# [6] = system: Echinochloa crus-galli (ECHCG); experiment: as above; conditions: 312 h, Rate 1,000 g/ha, post-emergence spray, evaluated after 13 days (100=total damage to plant; 0=no damage to plant), read-out: Percentage damage caused to weed species, post-emergence, ECHCG
# Summary of the method: as §1
# [7] = system: Amaranthus retoflexus (AMARE); experiment: Pre-emergence biological efficacy, glasshouse pot test; conditions: Amaranthus retroflexus, 312 h; pre-emergence, rate 1,000 g/ha, evaluated after 13 days (100=total damage to plant; 0=no damage); read-out: Percentage damage caused to weed species, AMARE
# Summary of the method: (§2)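 Damage was rated on a 0–100 scale 13 days after treatment, with plants kept at 24/16° C, 14 h light and 65% humidity. The pre-emergence spray, at 1000 or 250 g/ha in acetone/water 50:50 with 0.5% Tween 20, was applied one day after sowing.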
# [8] = system: Solanum nigrum (SOLNI); experiment: as above; conditions: 312 h, pre-emergence, rate 1,000 g/ha, evaluated after 13 days (100=total damage to plant; 0=no damage), read-out: Percentage damage caused to weed species, SOLNI
# Summary of the method: as §2
# [9] = system: Alopecurus myosuroides (ALOMY); experiment: as above; conditions: 312 h, pre-emergence, rate 1,000 g/ha, evaluated after 13 days (100=total damage to plant; 0=no damage), read-out: Percentage damage caused to weed species, ALOMY
# Summary of the method: as §2
# [10] = system: Setaria faberi (SETFA); experiment: as above; conditions: 312 h, pre-emergence, rate 1,000 g/ha, evaluated after 13 days (100=total damage to plant; 0=no damage), read-out: Percentage damage caused to weed species, SETFA
# Summary of the method: as §2
# [11] = system: Ipomea hederaceae (IPOHE); experiment: as above; conditions: Ipomoea hederacea, 312 h; pre-emergence, rate 1,000 g/ha, evaluated after 13 days (100=total damage to plant; 0=no damage); read-out: Percentage damage caused to weed species, IPOHE
# Summary of the method: as §2
# [12] = system: Echinochloa crus-galli (ECHCG); experiment: as above; conditions: 312 h, pre-emergence, rate 1,000 g/ha, evaluated after 13 days (100=total damage to plant; 0=no damage), read-out: Percentage damage caused to weed species, ECHCG
# Summary of the method: as §2
smiles,measurement,setting,value
"C=Cc1c(NCc2ccco2)nc(-c2ccc(Cl)cc2)nc1C(=O)OC [Compound 67-125, 2-(4-Chlorophenyl)-5-ethenyl-4-(furan-2-ylmethylamino)-6-methoxycarbonyl-pyrimidine]",pest or weed control at 1000 g/ha,[1],100%
same,pest or weed control at 1000 g/ha,[2],90%
same,pest or weed control at 1000 g/ha,[3],30%
same,pest or weed control at 1000 g/ha,[4],0%
same,pest or weed control at 1000 g/ha,[5],80%
same,pest or weed control at 1000 g/ha,[6],40%
same,pest or weed control at 1000 g/ha,[7],100%
same,pest or weed control at 1000 g/ha,[8],20%
same,pest or weed control at 1000 g/ha,[9],50%
same,pest or weed control at 1000 g/ha,[10],10%
same,pest or weed control at 1000 g/ha,[11],40%
same,pest or weed control at 1000 g/ha,[12],20%
"COc1c(Cl)ccc(-c2nc(NCC3CC3)c(Cl)c(C(=O)O)n2)c1F [Compound 109-43, 5-Chloro-2-(4-chloro-2-fluoro-3-methoxyphenyl)-4-cyclopropylmethyl-aminopyrimidine-6-carboxylic acid]",pest or weed control at 1000 g/ha,[1],100%
same,pest or weed control at 1000 g/ha,[2],100%
same,pest or weed control at 1000 g/ha,[3],90%
same,pest or weed control at 1000 g/ha,[4],90%
same,pest or weed control at 1000 g/ha,[5],80%
same,pest or weed control at 1000 g/ha,[6],100%
same,pest or weed control at 1000 g/ha,[7],100%
same,pest or weed control at 1000 g/ha,[8],90%
same,pest or weed control at 1000 g/ha,[9],10%
same,pest or weed control at 1000 g/ha,[10],60%
same,pest or weed control at 1000 g/ha,[11],70%
same,pest or weed control at 1000 g/ha,[12],30%
"COc1c(Cl)ccc(-c2nc(NCc3ccco3)c(Cl)c(C(=O)O)n2)c1F [Compound 109-125, 5-Chloro-2-(4-chloro-2-fluoro-3-methoxyphenyl)-4-(furan-2-yl-methyl-amino)pyrimidine-6-carboxylic acid]",pest or weed control at 1000 g/ha,[1],100%
same,pest or weed control at 1000 g/ha,[2],90%
same,pest or weed control at 1000 g/ha,[3],70%
same,pest or weed control at 1000 g/ha,[4],90%
same,pest or weed control at 1000 g/ha,[5],100%
same,pest or weed control at 1000 g/ha,[6],80%
same,pest or weed control at 1000 g/ha,[7],100%
same,pest or weed control at 1000 g/ha,[8],100%
same,pest or weed control at 1000 g/ha,[9],70%
same,pest or weed control at 1000 g/ha,[10],90%
same,pest or weed control at 1000 g/ha,[11],100%
same,pest or weed control at 1000 g/ha,[12],90%
"COC(=O)c1nc(-c2ccc(Cl)c(OC)c2F)nc(NCC2CC2)c1Cl [Compound 112-43, 5-Chloro-2-(4-chloro-2-fluoro-3-methoxy-phenyl)-4-cyclo-propylmethylamino-6-methoxycarbonyl-pyrimidine]",pest or weed control at 1000 g/ha,[1],100%
same,pest or weed control at 1000 g/ha,[2],90%
same,pest or weed control at 1000 g/ha,[3],40%
same,pest or weed control at 1000 g/ha,[4],80%
same,pest or weed control at 1000 g/ha,[5],70%
same,pest or weed control at 1000 g/ha,[6],80%
same,pest or weed control at 1000 g/ha,[7],60%
same,pest or weed control at 1000 g/ha,[8],70%
same,pest or weed control at 1000 g/ha,[9],40%
same,pest or weed control at 1000 g/ha,[10],30%
same,pest or weed control at 1000 g/ha,[11],80%
same,pest or weed control at 1000 g/ha,[12],60%
"COC(=O)c1nc(-c2ccc(Cl)c(OC)c2F)nc(NCc2ccco2)c1Cl [Compound 112-125, 5-Chloro-2-(4-chloro-2-fluoro-3-methoxyphenyl)-4-(furan-2-yl-methyl-amino)-6-methoxy-carbonylpyrimidine]",pest or weed control at 1000 g/ha,[1],100%
same,pest or weed control at 1000 g/ha,[2],100%
same,pest or weed control at 1000 g/ha,[3],80%
same,pest or weed control at 1000 g/ha,[4],100%
same,pest or weed control at 1000 g/ha,[5],90%
same,pest or weed control at 1000 g/ha,[6],90%
same,pest or weed control at 1000 g/ha,[7],100%
same,pest or weed control at 1000 g/ha,[8],90%
same,pest or weed control at 1000 g/ha,[9],70%
same,pest or weed control at 1000 g/ha,[10],90%
same,pest or weed control at 1000 g/ha,[11],100%
same,pest or weed control at 1000 g/ha,[12],100%
"COC(=O)c1nc(-c2ccc(Cl)c(OC)c2F)nc(NCc2ccc(C)o2)c1Cl [Compound 112-135, 5-Chloro-2-(4-chloro-2-fluoro-3-methoxyphenyl)-6-methoxycarbonyl-4-[(5-methylfuran-2-yl)methylamino)-pyrimidine]",pest or weed control at 1000 g/ha,[1],100%
same,pest or weed control at 1000 g/ha,[2],90%
same,pest or weed control at 1000 g/ha,[3],70%
same,pest or weed control at 1000 g/ha,[4],90%
same,pest or weed control at 1000 g/ha,[5],80%
same,pest or weed control at 1000 g/ha,[6],90%
same,pest or weed control at 1000 g/ha,[7],100%
same,pest or weed control at 1000 g/ha,[8],100%
same,pest or weed control at 1000 g/ha,[9],70%
same,pest or weed control at 1000 g/ha,[10],90%
same,pest or weed control at 1000 g/ha,[11],100%
same,pest or weed control at 1000 g/ha,[12],90%
"C=Cc1c(NCc2ccco2)nc(-c2ccc(Cl)c(OC)c2F)nc1C(=O)OC [Compound 139-125, 2-(4-Chloro-2-fluoro-3-methoxyphenyl)-5-ethenyl-4-(furan-2-ylmethylamino)-6-methoxycarbonyl-pyrimidine]",pest or weed control at 1000 g/ha,[1],100%
same,pest or weed control at 1000 g/ha,[2],90%
same,pest or weed control at 1000 g/ha,[3],80%
same,pest or weed control at 1000 g/ha,[4],90%
same,pest or weed control at 1000 g/ha,[5],80%
same,pest or weed control at 1000 g/ha,[6],80%
same,pest or weed control at 1000 g/ha,[7],100%
same,pest or weed control at 1000 g/ha,[8],100%
same,pest or weed control at 1000 g/ha,[9],70%
same,pest or weed control at 1000 g/ha,[10],80%
same,pest or weed control at 1000 g/ha,[11],90%
same,pest or weed control at 1000 g/ha,[12],80%
CCCN(Cc1ccccc1)c1nc(C2CC2)nc(C(=O)OC)c1Cl [Compound 145-60],pest or weed control at 1000 g/ha,[1],90%
same,pest or weed control at 1000 g/ha,[2],80%
same,pest or weed control at 1000 g/ha,[3],20%
same,pest or weed control at 1000 g/ha,[4],70%
same,pest or weed control at 1000 g/ha,[5],80%
same,pest or weed control at 1000 g/ha,[6],40%
same,pest or weed control at 1000 g/ha,[7],100%
same,pest or weed control at 1000 g/ha,[8],70%
same,pest or weed control at 1000 g/ha,[9],0%
same,pest or weed control at 1000 g/ha,[10],10%
same,pest or weed control at 1000 g/ha,[11],40%
same,pest or weed control at 1000 g/ha,[12],0%
"CCCN(Cc1ccccc1F)c1nc(C2CC2)nc(C(=O)OC)c1Cl [Compound 145-64, 5-Chloro-2-cyclopropyl-4-[N-(2-fluorophenylmethyl)-N-prop-1-yl-amino]-6-methoxy-carbonylpyrimidine]",pest or weed control at 1000 g/ha,[1],90%
same,pest or weed control at 1000 g/ha,[2],80%
same,pest or weed control at 1000 g/ha,[3],0%
same,pest or weed control at 1000 g/ha,[4],40%
same,pest or weed control at 1000 g/ha,[5],70%
same,pest or weed control at 1000 g/ha,[6],30%
same,pest or weed control at 1000 g/ha,[7],70%
same,pest or weed control at 1000 g/ha,[8],70%
same,pest or weed control at 1000 g/ha,[9],0%
same,pest or weed control at 1000 g/ha,[10],0%
same,pest or weed control at 1000 g/ha,[11],70%
same,pest or weed control at 1000 g/ha,[12],0%
"CCCN(Cc1ccc(C)cc1)c1nc(C2CC2)nc(C(=O)OC)c1Cl [Compound 145-73, 5-Chloro-2-cyclopropyl-6-methoxycarbonyl-4-[N-(4-methyl-phenylmethyl)-N-prop-1-yl-amino]-pyrimidine]",pest or weed control at 1000 g/ha,[1],80%
same,pest or weed control at 1000 g/ha,[2],50%
same,pest or weed control at 1000 g/ha,[3],10%
same,pest or weed control at 1000 g/ha,[4],40%
same,pest or weed control at 1000 g/ha,[5],70%
same,pest or weed control at 1000 g/ha,[6],20%
same,pest or weed control at 1000 g/ha,[7],100%
same,pest or weed control at 1000 g/ha,[8],70%
same,pest or weed control at 1000 g/ha,[9],30%
same,pest or weed control at 1000 g/ha,[10],20%
same,pest or weed control at 1000 g/ha,[11],20%
same,pest or weed control at 1000 g/ha,[12],30%
